This is an account of results in patent US10787450B2 (BRISTOL-MYERS SQUIBB COMPANY, priority 2016, dated 2020).

Molecules are shown by their SMILES.

This test deals with ROCK2 (Homo sapiens (Human), UniProt O75116). The experiment in a line: ROCK2 kinase inhibition assay (FITC peptide substrate, LABCHIP 3000 Reader). The format is biochemical. To be noted: 5 μM ATP, 1.5 μM peptide substrate. The method, then: The effectiveness of compounds of the present invention as ROCK inhibitors can be determined in a 30 μL assay containing 20 mM HEPES, pH 7.5, 20 mM MgCl2, 0.015% Brij-35, 4 mM DTT, 5 μM ATP and 1.5 μM peptide substrate (FITC-AHA-AKRRRLSSLRA-OH) (SEQ ID NO. 1). Compounds were dissolved in DMSO so that the final concentration of DMSO was <2%, and the reaction was initiated with Rho kinase variants. After incubation, the reaction was terminated by the addition of EDTA and the phosphorylated and non-phosphorylated peptides separated using a LABCHIP® 3000 Reader (Caliper Life Sciences). […] Compounds were tested in dose-response format, and the inhibition of kinase activity was calculated at each concentration of compound. The inhibition data were fit using a curve-fitting program to determine the IC50; i.e., the concentration of compound required to inhibit 50% of kinase activity.
ROCK2, sequence (O75116 whole entry, species assumed): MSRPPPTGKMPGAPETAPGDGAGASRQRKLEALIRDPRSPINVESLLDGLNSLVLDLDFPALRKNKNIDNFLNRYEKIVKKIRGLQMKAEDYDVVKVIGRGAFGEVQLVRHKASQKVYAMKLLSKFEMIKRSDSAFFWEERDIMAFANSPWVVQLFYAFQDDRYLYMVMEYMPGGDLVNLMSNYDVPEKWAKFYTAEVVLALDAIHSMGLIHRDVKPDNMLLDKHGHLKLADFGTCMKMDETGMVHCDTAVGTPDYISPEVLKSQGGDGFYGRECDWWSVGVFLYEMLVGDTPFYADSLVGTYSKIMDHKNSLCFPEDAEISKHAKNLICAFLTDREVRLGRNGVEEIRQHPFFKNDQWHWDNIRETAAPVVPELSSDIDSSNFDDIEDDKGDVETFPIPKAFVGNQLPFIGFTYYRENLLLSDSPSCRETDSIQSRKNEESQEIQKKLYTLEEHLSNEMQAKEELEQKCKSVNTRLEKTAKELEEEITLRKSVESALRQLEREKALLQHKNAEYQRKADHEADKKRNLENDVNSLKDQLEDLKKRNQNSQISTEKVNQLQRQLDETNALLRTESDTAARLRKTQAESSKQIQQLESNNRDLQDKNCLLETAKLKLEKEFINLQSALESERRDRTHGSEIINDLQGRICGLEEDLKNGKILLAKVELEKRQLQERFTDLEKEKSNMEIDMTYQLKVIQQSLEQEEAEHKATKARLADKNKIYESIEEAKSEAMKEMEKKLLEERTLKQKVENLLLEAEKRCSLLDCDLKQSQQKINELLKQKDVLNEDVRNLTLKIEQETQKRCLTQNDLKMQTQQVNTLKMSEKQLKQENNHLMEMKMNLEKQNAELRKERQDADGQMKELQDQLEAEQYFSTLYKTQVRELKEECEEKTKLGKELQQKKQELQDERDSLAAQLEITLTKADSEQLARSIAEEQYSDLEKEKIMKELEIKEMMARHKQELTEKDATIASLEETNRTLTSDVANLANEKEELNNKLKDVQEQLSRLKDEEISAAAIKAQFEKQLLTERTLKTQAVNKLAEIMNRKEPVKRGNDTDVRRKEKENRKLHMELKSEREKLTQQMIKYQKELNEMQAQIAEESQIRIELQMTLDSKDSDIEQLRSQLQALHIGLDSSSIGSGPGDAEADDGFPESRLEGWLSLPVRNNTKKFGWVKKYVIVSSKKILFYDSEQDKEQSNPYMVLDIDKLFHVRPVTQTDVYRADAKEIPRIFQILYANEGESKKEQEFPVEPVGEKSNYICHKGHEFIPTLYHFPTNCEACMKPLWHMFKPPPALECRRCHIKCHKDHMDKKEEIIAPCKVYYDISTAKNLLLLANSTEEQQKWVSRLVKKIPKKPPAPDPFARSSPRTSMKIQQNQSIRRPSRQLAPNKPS
Representative examples were tested in the ROCK2 assay described above and found having ROCK2 inhibitory activity.
As usually defined, the IC50 is the concentration needed to halve the response being measured. Turning to `COc1cccc(C(C)N2C(=O)N(c3ccc(-c4cn[nH]c4)cc3)CC23CC3)c1` (single isomer, unassigned) [Example 2, 6-(4-(1H-pyrazol-4-yl)phenyl)-4-(1-(3-methoxyphenyl)ethyl)-4,6-diazaspiro[2.4]heptan-5-one], the concentration for half-maximal inhibition (IC50) fell in the range of 3 to 30 nM.

In turn, `COc1cccc(C(C)N2C(=O)N(c3ccc(-c4cn[nH]c4)cc3)CC23CC3)c1` (single isomer, unassigned) [Example 3, 6-(4-(1H-pyrazol-4-yl)phenyl)-4-(1-(3-methoxyphenyl)ethyl)-4,6-diazaspiro[2.4]heptan-5-one] returned a half-maximal inhibitory concentration (IC50) of 30 to 250 nM.

Molecule `COc1cccc(CN2C(=O)N(c3ccc(-c4cn[nH]c4)cc3)CC23CCN(CC(C)O)CC3)c1` (single isomer, unassigned) [Example 139, 3-(4-(1H-pyrazol-4-yl)phenyl)-8-(2-hydroxypropyl)-1-(3-methoxybenzyl)-1,3,8-triazaspiro[4.5]decan-2-one] came in with a concentration for half-maximal inhibition (IC50) of less than 3 nM.

The molecule `COc1cccc(CN2C(=O)N(c3ccc(-c4cn[nH]c4)cc3)CC23CCN(CC(C)O)CC3)c1` (single isomer, unassigned) [Example 140, 3-(4-(1H-pyrazol-4-yl)phenyl)-8-(2-hydroxypropyl)-1-(3-methoxybenzyl)-1,3,8-triazaspiro[4.5]decan-2-one] gave a concentration for half-maximal inhibition (IC50) of less than 3 nM.

As to `COc1cccc(CN2C(=O)N(c3ccc(-c4cn[nH]c4)cc3)CC23CC3)c1` [Example 1, 6-(4-(1H-pyrazol-4-yl)phenyl)-4-(3-methoxybenzyl)-4,6-diazaspiro[2.4]heptan-5-one], the IC50 was less than 3 nM.

In the case of `CCc1cc(N2CC3(CC3)N(Cc3cc(F)cc(OC)c3)C2=O)ccc1-c1cn[nH]c1` [Example 4, 6-(3-ethyl-4-(1H-pyrazol-4-yl)phenyl)-4-(3-fluoro-5-methoxybenzyl)-4,6-diazaspiro[2.4]heptan-5-one], the 50% inhibitory concentration (IC50) is 3 to 30 nM.

`CCc1cc(N2CC3(CC3)N(Cc3cccc(OC)c3)C2=O)ccc1-c1cn[nH]c1` [Example 5, 6-(3-ethyl-4-(1H-pyrazol-4-yl)phenyl)-4-(3-methoxybenzyl)-4,6-diazaspiro[2.4]heptan-5-one] displayed an IC50 of less than 3 nM.

Molecule `COc1cc(CN2C(=O)N(c3ccc(-c4cn[nH]c4)cc3)CC23CC3)ccc1F` [Example 6, 6-(4-(1H-pyrazol-4-yl)phenyl)-4-(4-fluoro-3-methoxybenzyl)-4,6-diazaspiro[2.4]heptan-5-one] came in with an IC50 of less than 3 nM.

In turn, `O=C1N(c2ccc(-c3cn[nH]c3)cc2)CC2(CC2)N1Cc1cccc(OCC2CC2)c1` [Example 7, 6-(4-(1H-pyrazol-4-yl)phenyl)-4-(3-(cycloproylmethoxy)benzyl)-4,6-diazaspiro[2.4]heptan-5-one] gave an IC50 of 3 to 30 nM.

In turn, `COc1cc(F)cc(CN2C(=O)N(c3ccc(-c4cn[nH]c4)cc3)CC23CC3)c1` [Example 8, 6-(4-(1H-pyrazol-4-yl)phenyl)-4-(3-fluoro-5-methoxybenzyl)-4,6-diazaspiro[2.4]heptan-5-one] gave a half-inhibitory concentration (IC50) of less than 3 nM.

For `COc1cccc(CN2C(=O)N(c3ccc(-c4cn[nH]c4)cc3)CC23CCOCC3)c1` [Example 9, 3-(4-(1H-pyrazol-4-yl)phenyl)-1-(3-methoxybenzyl)-8-oxa-1,3-diazaspiro[4.5]decan-2-one], the 50% inhibitory concentration (IC50) is less than 3 nM.

`COc1cc(F)cc(CN2C(=O)N(c3ccc(-c4cn[nH]c4)cc3)CC23CCOCC3)c1` [Example 10, 3-(4-(1H-pyrazol-4-yl)phenyl)-1-(3-fluoro-5-methoxybenzyl)-8-oxa-1,3-diazaspiro[4.5]decan-2-one] displayed an IC50 of less than 3 nM.

For `O=C1N(c2ccc(-c3cn[nH]c3)cc2)CC2(CCOCC2)N1Cc1cccc(OCC2CC2)c1` [Example 11, 3-(4-(1H-pyrazol-4-yl)phenyl)-1-(3-(cyclopropylmethoxy)benzyl)-8-oxa-1,3-diazaspiro[4.5]decan-2-one], the half-maximal inhibitory concentration (IC50) fell in the range of 3 to 30 nM.

Take `O=C1N(c2ccc(-c3cn[nH]c3)cc2)CC2(CCOCC2)N1Cc1ccccc1F` [Example 12, 3-(4-(1H-pyrazol-4-yl)phenyl)-1-(2-fluorobenzyl)-8-oxa-1,3-diazaspiro[4.5]decan-2-one]: the concentration for half-maximal inhibition (IC50) fell in the range of 30 to 250 nM.

`O=C1N(c2ccc(-c3cn[nH]c3)cc2)CC2(CCOCC2)N1Cc1cccc(F)c1` [Example 13, 3-(4-(1H-pyrazol-4-yl)phenyl)-1-(3-fluorobenzyl)-8-oxa-1,3-diazaspiro[4.5]decan-2-one]: the half-maximal inhibitory concentration (IC50) was in the range of 3 to 30 nM.

The molecule `N#Cc1cccc(CN2C(=O)N(c3ccc(-c4cn[nH]c4)cc3)CC23CCOCC3)c1` [Example 14, 3-((3-(4-(1H-pyrazol-4-yl)phenyl)-2-oxo-8-oxa-1,3-diazaspiro[4.5]decan-1-yl)methyl)benzonitrile] had a half-maximal inhibitory concentration (IC50) of 30 to 250 nM.

For the molecule `O=C1N(c2ccc(-c3cn[nH]c3)cc2)CC2(CCOCC2)N1Cc1cccc(Cl)c1` [Example 15], the half-maximal inhibitory concentration (IC50) is 250 to 3000 nM.

The molecule `O=C1N(c2ccc(-c3cn[nH]c3)cc2)CC2(CCOCC2)N1Cc1cccc(Cl)c1` [Example 16, 3-(4-(1H-pyrazol-4-yl)phenyl)-1-(3-chlorobenzyl)-8-oxa-1,3-diazaspiro[4.5]decan-2-one] displayed an IC50 of 3 to 30 nM.

Turning to `O=C1N(c2ccc(-c3cn[nH]c3)cc2)CC2(CCOCC2)N1Cc1ccc(F)c(F)c1` [Example 17, 3-(4-(1H-pyrazol-4-yl)phenyl)-1-(3,4-difluorobenzyl)-8-oxa-1,3-diazaspiro[4.5]decan-2-one], the concentration for half-maximal inhibition (IC50) lay within 3 to 30 nM.

On to `O=C1N(c2ccc(-c3cn[nH]c3)cc2)CC2(CCOCC2)N1Cc1cccc(C(F)(F)F)c1` [Example 18, 3-(4-(1H-pyrazol-4-yl)phenyl)-1-(3-(trifluoromethyl)benzyl)-8-oxa-1,3-diazaspiro[4.5]decan-2-one], for which the half-inhibitory concentration (IC50) was in the range of 30 to 250 nM.

The molecule `O=C1N(c2ccc(-c3cn[nH]c3)cc2)CC2(CCOCC2)N1Cc1ccc(Cl)c(Cl)c1` [Example 19, 3-(4-(1H-pyrazol-4-yl)phenyl)-1-(3,4-dichlorobenzyl)-8-oxa-1,3-diazaspiro[4.5]decan-2-one] registered a half-maximal inhibitory concentration (IC50) of 30 to 250 nM.

Molecule `O=C1N(c2ccc(-c3cn[nH]c3)cc2)CC2(CCOCC2)N1Cc1cccc(OC(F)(F)F)c1` [Example 20, 3-(4-(1H-pyrazol-4-yl)phenyl)-1-(3-(trifluoromethoxy)benzyl)-8-oxa-1,3-diazaspiro[4.5]decan-2-one] came in with an IC50 of 30 to 250 nM.

As to `O=C1N(c2ccc(-c3cn[nH]c3)cc2)CC2(CCOCC2)N1Cc1ccc(F)cc1F` [Example 22, 3-(4-(1H-pyrazol-4-yl)phenyl)-1-(2,4-difluorobenzyl)-8-oxa-1,3-diazaspiro[4.5]decan-2-one], the IC50 lay in the range of 30 to 250 nM.

Molecule `O=C1N(c2ccc(-c3cn[nH]c3)cc2)CC2(CCOCC2)N1Cc1c(F)cccc1F` [Example 23, 3-(4-(1H-pyrazolo-4-yl)phenyl)-1-(2,6-difluorobenzyl)-8-oxa-1,3-diazaspiro[4.5]decan-2-one] gave a 50% inhibitory concentration (IC50) of 250 to 3000 nM.

`O=C1N(c2ccc(-c3cn[nH]c3)cc2)CC2(CCOCC2)N1Cc1cc(F)cc(F)c1` [Example 24, 3-(4-(1H-pyrazol-4-yl)phenyl)-1-(3,5-difluorobenzyl)-8-oxa-1,3-diazaspiro[4.5]decan-2-one] gave an IC50 of 3 to 30 nM.

On to `Cc1c(F)cccc1CN1C(=O)N(c2ccc(-c3cn[nH]c3)cc2)CC12CCOCC2` [Example 25, 3-(4-(1H-pyrazol-4-yl)phenyl)-1-(3-fluoro-2-methylbenzyl)-8-oxa-1,3-diazaspiro[4.5]decan-2-one], for which the half-maximal inhibitory concentration (IC50) is less than 3 nM.

For the molecule `Cc1cc(F)ccc1CN1C(=O)N(c2ccc(-c3cn[nH]c3)cc2)CC12CCOCC2` [Example 26, 3-(4-(1H-pyrazol-4-yl)phenyl)-1-(4-fluoro-2-methylbenzyl)-8-oxa-1,3-diazaspiro[4.5]decan-2-one], the half-inhibitory concentration (IC50) lay in the range of 30 to 250 nM.

`Cc1ccc(F)cc1CN1C(=O)N(c2ccc(-c3cn[nH]c3)cc2)CC12CCOCC2` [Example 27, 3-(4-(1H-pyrazol-4-yl)phenyl)-1-(5-fluoro-2-methylbenzyl)-8-oxa-1,3-diazaspiro[4.5]decan-2-one]: the 50% inhibitory concentration (IC50) was 30 to 250 nM.

In turn, `COc1cc(F)ccc1CN1C(=O)N(c2ccc(-c3cn[nH]c3)cc2)CC12CCOCC2` [Example 28, 3-(4-(1H-pyrazol-4-yl)phenyl)-1-(4-fluoro-2-methoxybenzyl)-8-oxa-1,3-diazaspiro[4.5]decan-2-one] displayed a 50% inhibitory concentration (IC50) of 30 to 250 nM.

The molecule `COc1cccc(CN2C(=O)N(c3ccc(-c4cn[nH]c4)cc3)CC23CCOCC3)c1F` [Example 29, 3-(4-(1H-pyrazol-4-yl)phenyl)-1-(2-fluoro-3-methoxybenzyl)-8-oxa-1,3-diazaspiro[4.5]decan-2-one] showed a concentration for half-maximal inhibition (IC50) of 30 to 250 nM.

`O=C1N(c2ccc(-c3cn[nH]c3)cc2)CC2(CCOCC2)N1CC1CCCCC1` [Example 30, 3-(4-(1H-pyrazol-4-yl)phenyl)-1-(cyclohexylmethyl)-8-oxa-1,3-diazaspiro[4.5]decan-2-one] registered an IC50 of 30 to 250 nM.

Molecule `CNC(=O)c1cccc(CN2C(=O)N(c3ccc(-c4cn[nH]c4)cc3)CC23CCOCC3)c1` [Example 31, 3-((3-(4-(1H-pyrazol-4-yl)phenyl)-2-oxo-8-oxa-1,3-diazaspiro[4.5]decan-1-yl)methyl)-N-methylbenzamide] showed an IC50 of 30 to 250 nM.

On to `NC(=O)c1cccc(CN2C(=O)N(c3ccc(-c4cn[nH]c4)cc3)CC23CCOCC3)c1` [Example 32, 3-((3-(4-(1H-pyrazol-4-yl)phenyl)-2-oxo-8-oxa-1,3-diazaspiro[4.5]decan-1-yl)methyl)benzamide], for which the half-maximal inhibitory concentration (IC50) lay in the range of 30 to 250 nM.
